Where a SMILES comes first, the peptide text is derived from it. [ ]: non-standard residue; d: D form. The star is where a group is joined. Palmitoyl = CCCCCCCCCCCCCCCC(=O)*; β3hK = NCCCC[C@H](N)CC(=O)O
test system: West Nile virus; test: not given; conditions: not given

Row | Compound | EC50
1 | CCCCCCCCCCCCCCCC(=O)N[C@@H](CCCCN)CC(=O)N[C@@H](C)C(=O)N[C@H](C)C(=O)N[C@@H](CCCCN)C(N)=O [compound 114] (Palmitoyl-[β3hK]A[dA]K-NH2) | ≤ 25 µM
2 | CCCCCCCCCCCCCCCC(=O)N[C@@H](CCCCN)CN1CCC[C@H]1C(=O)N[C@@H](C)C(=O)N[C@H](CCc1ccccc1)C(N)=O [compound 118] | ≤ 25 µM
3 | CCCCCCCCCCCCCCCC(=O)N[C@@H](CCCCN)C(=O)N[C@@H](C)C(=O)N[C@@H](C)C(=O)N[C@H](CCCCN)C(=O)c1ccccc1 [compound 136] | ≤ 25 µM

test system: ZIKV; test: not given; conditions: not given

Row | Compound | EC50
4 | CCCCCCCCCCCCCCCC(=O)N[C@@H](CCCCN)CC(=O)N[C@@H](C)C(=O)N[C@H](C)C(=O)N[C@@H](CCCCN)C(N)=O [compound 114] (Palmitoyl-[β3hK]A[dA]K-NH2) | ≤ 10 µM
5 | CCCCCCCCCCCCCCCC(=O)N[C@@H](CCCCN)CN1CCC[C@H]1C(=O)N[C@@H](C)C(=O)N[C@H](CCc1ccccc1)C(N)=O [compound 118] | ≤ 10 µM

target: T1, DENV protease (Dengue virus type 2, UniProt P29990); test: biochemical; conditions: at 1 μM; read-out: inhibition of DENV
T1 construct: The virus-encoded dengue protease comprises the amino-terminal 180 amino acids of NS3 (NS3pro) of the polyprotein
T1 sequence (P29990 1398-1437): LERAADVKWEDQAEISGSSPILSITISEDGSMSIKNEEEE
T1 sequence (P29990 1476-1653): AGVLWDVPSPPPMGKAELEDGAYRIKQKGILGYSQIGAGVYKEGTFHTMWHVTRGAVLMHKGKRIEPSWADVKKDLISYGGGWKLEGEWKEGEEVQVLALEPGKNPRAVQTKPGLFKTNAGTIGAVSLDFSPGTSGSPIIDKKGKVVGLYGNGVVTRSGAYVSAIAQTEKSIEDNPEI
Procedure, shortened: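 DENV protease (100 nM) was pre-incubated 15 min with inhibitors in 50 mM Tris-HCl pH 9.0, 10% ethylene glycol, 0.0016% Brij 58. FRET substrate (50 μM final) started the reaction, monitored 15 min as RFU/s slope. IC50 came from triplicate means versus concentration.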

Row | Compound | inhibition at 1 µM
6 | CCCCCCCCCCCCCCCC(=O)N[C@@H](CCCCN)CC(=O)N[C@@H](C)C(=O)N[C@H](C)C(=O)N[C@@H](CCCCN)C(N)=O [compound 114] (Palmitoyl-[β3hK]A[dA]K-NH2) | ≥ 20%

same assay, conditions: at 50 μM; read-out: inhibition of DENV

Row | Compound | inhibition at 50 µM
7 | CCCCCCCCCCCCCCCC(=O)N[C@@H](CCCCN)CC(=O)N[C@@H](C)C(=O)N[C@H](C)C(=O)N[C@@H](CCCCN)C(N)=O [compound 114] (Palmitoyl-[β3hK]A[dA]K-NH2) | ≥ 25%
8 | CCCCCCCCCCCCCCCC(=O)N[C@@H](CCCCN)CN1CCC[C@H]1C(=O)N[C@@H](C)C(=O)N[C@H](CCc1ccccc1)C(N)=O [compound 118] | ≥ 25%
9 | CCCCCCCCCCCCCCCC(=O)N[C@@H](CCCCN)C(=O)N[C@@H](C)C(=O)N[C@@H](C)C(=O)N[C@H](CCCCN)C(=O)c1ccccc1 [compound 136] | ≥ 25%

same assay, conditions: read-out: inhibition of DENV

Row | Compound | inhibition at 1 µM
10 | CCCCCCCCCCCCCCCC(=O)N[C@@H](CCCCN)C(=O)N[C@@H](C)C(=O)N[C@@H](C)C(=O)N[C@H](CCCCN)C(=O)c1ccccc1 [compound 136] | ≥ 20%

target: human Trypsin (Homo sapiens, UniProt P07477); test: Selectivity screening, human serine protease trypsin; format: biochemical; conditions: at 5 μM; read-out: inhibition of human Trypsin
Description: (§1) By catalytic activity of the protease, the cleaved substrate results in increased fluorescence that can be monitored using a BMG Labtech Fluostar OPTIMA Microtiter fluorescence plate reader (excitation wavelength of 320 nm and a monitored emission wavelength of 405 nm). Dilutions were made starting from 10 mM stock solutions in DMSO and final concentrations were measured in triplicates. The inhibitors were preincubated for 15 min with DENV protease (100 nM) in the assay buffer (50 mM Tris-HCl pH 9.0, ethylene glycol (10% v/v), and 0.0016% Brij 58). The enzymatic reaction was initiated by the addition of the FRET substrate (final concentration 50 μM) to obtain a final assay volume of 100 μL per well. The enzymatic activity was monitored for 15 min and determined as a slope of relative fluorescence units per second (RFU/s) for each concentration. The mean of the triplicates were plotted against the corresponding concentration in CDDVault to determine the IC50-values. Analogous procedures were used to determine the inhibitory potency on WNV (Kühl et al., J. Med. Chem. 2020, 63 (15): 8179-8197) and ZIKA protease (Nitsche et al., ACS Med. Chem. Lett. 2019 Feb. 14; 10 (2): 168-174). For selectivity screening of active candidates, similar biochemical assays with human serine proteases trypsin (Weigel et al., J. Med. Chem. 2015, 58 (19), 7719-7733.) and/or thrombin (Nitsche et al., J. Med. Chem. 2013, 56 (21), 8389-8403) were used.

Row | Compound | inhibition at 5 µM
11 | CCCCCCCCCCCCCCCC(=O)N[C@@H](CCCCN)CC(=O)N[C@@H](C)C(=O)N[C@H](C)C(=O)N[C@@H](CCCCN)C(N)=O [compound 114] (Palmitoyl-[β3hK]A[dA]K-NH2) | < 10%
12 | CCCCCCCCCCCCCCCC(=O)N[C@@H](CCCCN)CN1CCC[C@H]1C(=O)N[C@@H](C)C(=O)N[C@H](CCc1ccccc1)C(N)=O [compound 118] | < 10%

same assay, conditions: at 25 μM; read-out: inhibition of human Trypsin

Row | Compound | inhibition at 25 µM
13 | CCCCCCCCCCCCCCCC(=O)N[C@@H](CCCCN)CC(=O)N[C@@H](C)C(=O)N[C@H](C)C(=O)N[C@@H](CCCCN)C(N)=O [compound 114] (Palmitoyl-[β3hK]A[dA]K-NH2) | < 20%
14 | CCCCCCCCCCCCCCCC(=O)N[C@@H](CCCCN)CN1CCC[C@H]1C(=O)N[C@@H](C)C(=O)N[C@H](CCc1ccccc1)C(N)=O [compound 118] | < 20%

same assay, conditions: read-out: inhibition of human Trypsin

Row | Compound | inhibition at 5 µM | inhibition at 25 µM
15 | CCCCCCCCCCCCCCCC(=O)N[C@@H](CCCCN)C(=O)N[C@@H](C)C(=O)N[C@@H](C)C(=O)N[C@H](CCCCN)C(=O)c1ccccc1 [compound 136] | < 10% | < 20%

target: T2, ZIKA protease (Zika virus, UniProt Q32ZE1); test: biochemical; conditions: not given
T2 construct: a trypsin-like serine protease domain in the N-terminal region of the flaviviral NS3 proteins
T2 sequence (Q32ZE1 1499-1676): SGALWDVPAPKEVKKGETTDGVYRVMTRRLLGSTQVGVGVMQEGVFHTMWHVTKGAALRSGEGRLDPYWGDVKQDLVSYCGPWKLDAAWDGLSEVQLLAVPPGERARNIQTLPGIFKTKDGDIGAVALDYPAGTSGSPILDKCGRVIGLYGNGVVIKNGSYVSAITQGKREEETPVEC
T2 sequence (Q32ZE1 1421-1460): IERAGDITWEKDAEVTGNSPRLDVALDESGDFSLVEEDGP
Description: as §1

Row | Compound | IC50
16 | CCCCCCCCCCCCCCCC(=O)N[C@@H](CCCCN)CC(=O)N[C@@H](C)C(=O)N[C@H](C)C(=O)N[C@@H](CCCCN)C(N)=O [compound 114] (Palmitoyl-[β3hK]A[dA]K-NH2) | ≤ 25 µM
17 | CCCCCCCCCCCCCCCC(=O)N[C@@H](CCCCN)CN1CCC[C@H]1C(=O)N[C@@H](C)C(=O)N[C@H](CCc1ccccc1)C(N)=O [compound 118] | ≤ 25 µM
18 | CCCCCCCCCCCCCCCC(=O)N[C@@H](CCCCN)C(=O)N[C@@H](C)C(=O)N[C@@H](C)C(=O)N[C@H](CCCCN)C(=O)c1ccccc1 [compound 136] | ≤ 25 µM

same assay, conditions: at 1 μM; read-out: inhibition of ZIKV

Row | Compound | inhibition at 1 µM
19 | CCCCCCCCCCCCCCCC(=O)N[C@@H](CCCCN)CC(=O)N[C@@H](C)C(=O)N[C@H](C)C(=O)N[C@@H](CCCCN)C(N)=O [compound 114] (Palmitoyl-[β3hK]A[dA]K-NH2) | ≥ 10%
20 | CCCCCCCCCCCCCCCC(=O)N[C@@H](CCCCN)CN1CCC[C@H]1C(=O)N[C@@H](C)C(=O)N[C@H](CCc1ccccc1)C(N)=O [compound 118] | ≥ 10%

same assay, conditions: at 50 μM; read-out: inhibition of ZIKV

Row | Compound | inhibition at 50 µM
21 | CCCCCCCCCCCCCCCC(=O)N[C@@H](CCCCN)CC(=O)N[C@@H](C)C(=O)N[C@H](C)C(=O)N[C@@H](CCCCN)C(N)=O [compound 114] (Palmitoyl-[β3hK]A[dA]K-NH2) | ≥ 65%
22 | CCCCCCCCCCCCCCCC(=O)N[C@@H](CCCCN)CN1CCC[C@H]1C(=O)N[C@@H](C)C(=O)N[C@H](CCc1ccccc1)C(N)=O [compound 118] | ≥ 65%

same assay, conditions: read-out: inhibition of ZIKV

Row | Compound | inhibition at 1 µM | inhibition at 50 µM
23 | CCCCCCCCCCCCCCCC(=O)N[C@@H](CCCCN)C(=O)N[C@@H](C)C(=O)N[C@@H](C)C(=O)N[C@H](CCCCN)C(=O)c1ccccc1 [compound 136] | ≥ 10% | ≥ 65%

target: T3, WNV protease (West Nile virus, UniProt P06935); test: WNV protease assay (analogous procedure); format: biochemical; conditions: at 50 μM
T3 construct: a trypsin-like serine protease domain in the N-terminal region of the flaviviral NS3 proteins
T3 sequence (P06935 1424-1463): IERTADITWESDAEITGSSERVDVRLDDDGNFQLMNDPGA
T3 sequence (P06935 1502-1679): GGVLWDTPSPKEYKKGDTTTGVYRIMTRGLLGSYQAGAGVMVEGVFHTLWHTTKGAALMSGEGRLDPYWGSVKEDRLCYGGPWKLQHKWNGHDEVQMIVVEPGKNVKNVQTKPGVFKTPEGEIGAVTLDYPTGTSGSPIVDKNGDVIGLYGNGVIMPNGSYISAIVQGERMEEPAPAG
Description: as §1

Row | Compound | inhibition at 50 µM
24 | CCCCCCCCCCCCCCCC(=O)N[C@@H](CCCCN)CN1CCC[C@H]1C(=O)N[C@@H](C)C(=O)N[C@H](CCc1ccccc1)C(N)=O [compound 118] | ≥ 25%
25 | CCCCCCCCCCCCCCCC(=O)N[C@@H](CCCCN)C(=O)N[C@@H](C)C(=O)N[C@@H](C)C(=O)N[C@H](CCCCN)C(=O)c1ccccc1 [compound 136] | ≥ 25%

target: human Thrombin (Homo sapiens, UniProt P00734); test: Selectivity screening, human serine protease thrombin; format: biochemical; conditions: at 5 μM; read-out: inhibition of human Thrombin
Description: as §1

Row | Compound | inhibition at 5 µM
26 | CCCCCCCCCCCCCCCC(=O)N[C@@H](CCCCN)CN1CCC[C@H]1C(=O)N[C@@H](C)C(=O)N[C@H](CCc1ccccc1)C(N)=O [compound 118] | < 5%

same assay, conditions: read-out: inhibition of human Thrombin

Row | Compound | inhibition at 5 µM
27 | CCCCCCCCCCCCCCCC(=O)N[C@@H](CCCCN)C(=O)N[C@@H](C)C(=O)N[C@@H](C)C(=O)N[C@H](CCCCN)C(=O)c1ccccc1 [compound 136] | < 5%

target: T3, WNV protease; test: WNV protease assay (analogous procedure); format: biochemical; conditions: read-out: IC50 for WNNV

Row | Compound | IC50
28 | CCCCCCCCCCCCCCCC(=O)N[C@@H](CCCCN)CC(=O)N[C@@H](C)C(=O)N[C@H](C)C(=O)N[C@@H](CCCCN)C(N)=O [compound 114] (Palmitoyl-[β3hK]A[dA]K-NH2) | ≤ 40 µM
29 | CCCCCCCCCCCCCCCC(=O)N[C@@H](CCCCN)CN1CCC[C@H]1C(=O)N[C@@H](C)C(=O)N[C@H](CCc1ccccc1)C(N)=O [compound 118] | ≤ 40 µM
30 | CCCCCCCCCCCCCCCC(=O)N[C@@H](CCCCN)C(=O)N[C@@H](C)C(=O)N[C@@H](C)C(=O)N[C@H](CCCCN)C(=O)c1ccccc1 [compound 136] | ≤ 40 µM
